Patent US20080227851A1, “L[…] L[…]” (priority 2007, published 2008)
≈ marks a conversion by molar mass, not a printed value.

Key:
MDA-MB-435 = settings: cited from earlier work
[1] = test system: SK-OV-3 (ovarian carcinoma) cell line; settings: cited from earlier work
SKVLB-1 = settings: cited from earlier work; for Resistance factor (SKVLB-1/SK-OV-3): ratio of IC50 SKVLB-1/SK-OV-3
A10 cells = settings: 2-20 μM; cited from earlier work
KB cells = settings: cited from earlier work
tubulin polymer = settings: radiolabeled Taxol; cited from earlier work
[2] = test system: human umbilical vein endothelial cells (HUVEC); settings: cited from earlier work
[3] = 0.01 N solution of HCl in acetone; cited from earlier work
purified tubulin = settings: cited from earlier work
[4] = test system: human umbilical vein endothelial cells (HUVEC); settings: read-out: IC50, inhibition of HUVEC proliferation; cited from earlier work
[5] = test system: human breast carcinoma MDA-MB-435; assay: sulforhodamine assay, proliferation of human tumor cells, MDA-MB-435; assay type: cell-based; settings: MDA-MB-435, sulforhodamine assay
Experimental: Laulimalide analogs disclosed herein were evaluated for the ability to inhibit the proliferation of human tumor cells using the sulforhodamine assay format (Mooberry et al., Cancer Research, 1999, 59, 653-660). The two cells lines selected were the human breast carcinoma MDA-MB-435 and the corresponding MDR cell line NCI/ADR, which overexpresses the PGP efflux pump protein.

[6] = test system: MDA-MB-435 (human breast adenocarcinoma) cell line; settings: cited from earlier work
[7] = SKVLB-1 (P-gp overexpressing MDR)

Question: With `C=C1C[C@H](C)C[C@@H]2CC=C[C@@H](C/C=C\C(=O)O[C@H]3C[C@@H](O[C@H]3/C=C/[C@@H]3CC(C)=CCO3)[C@@H](O)[C@@H](O)C1)O2` [Isolaulimalide, isolaulimalide] as the compound, how does the IC50 (MDA-MB-435) read?
Answer: 1970 ± 97 nM

Question: And the IC50 [1]?
Answer: 2570 ± 290 nM

Question: What about the IC50 (SKVLB-1; [7]) of the same compound?
Answer: 2650 ± 1380 nM

Question: And the “Resistance factor (SKVLB-1/SK-OV-3)” value (SKVLB-1)?
Answer: 1.03

Question: And the microtubule bundling (A10 cells)?
Answer: no microtubule bundles were observed

Question: What about the “IC50, cytotoxic to KB cells” value (KB cells) of the same compound?
Answer: > 0.2 µg/mL

Question: For `CC(=O)O[C@H]1C(=O)[C@@]2(C)[C@H]([C@H](OC(=O)c3ccccc3)[C@]3(O)C[C@H](OC(=O)[C@H](O)[C@@H](NC(=O)c4ccccc4)c4ccccc4)C(C)=C1C3(C)C)[C@]1(OC(C)=O)CO[C@@H]1C[C@@H]2O` [Taxol, paclitaxel], which IC50 (MDA-MB-435) is on record?
Answer: 1.02 ± 0.25 nM

Question: And the IC50 [1]?
Answer: 1.71 ± 1.07 nM

Question: And the IC50 (SKVLB-1; [7])?
Answer: > 100000 nM

Question: And the “IC50 (nM)” value (SKVLB-1; [7])?
Answer: completely ineffective

Question: What about the “Resistance factor (SKVLB-1/SK-OV-3)” value (SKVLB-1) of the same compound?
Answer: >58480

Question: With `C=C1C[C@H](C)C[C@@H]2CC=C[C@@H](C/C=C\C(=O)O[C@H]([C@@H](O)/C=C/[C@@H]3CC(C)=CCO3)C[C@@H]3O[C@H]3[C@@H](O)C1)O2` [Laulimalide, laulimalide] as the compound, how does the “competition with Taxol binding to tubulin polymer” value (tubulin polymer) read?
Answer: does not compete with Taxol

Question: What about the IC50 (MDA-MB-435) of the same compound?
Answer: 5.73 ± 0.58 nM

Question: And the IC50 [1]?
Answer: 11.5 ± 0.53 nM

Question: And the “concentration inhibiting tubule formation and VEGF-induced HUVEC migration” value [2]?
Answer: subnanomolar

Question: And the “time to complete acid-catalyzed decomposition to isolaulimalide” value [3]?
Answer: four

Question: What about the IC50 (SKVLB-1; [7]) of the same compound?
Answer: 1210 ± 490 nM

Question: What about the “Resistance factor (SKVLB-1/SK-OV-3)” value (SKVLB-1) of the same compound?
Answer: 105

Question: And the “polymerization of purified tubulin” value (purified tubulin)?
Answer: caused the polymerization of purified tubulin

Question: And the IC50 [4]?
Answer: 4 nM

Question: What about the microtubule bundling (A10 cells) of the same compound?
Answer: caused bundling of microtubules similar to that induced by Taxol

Question: And the “IC50, cytotoxic to KB cells” value (KB cells)?
Answer: 0.015 µg/mL (≈ 0.0291 µM)

Question: And the IC50 [5]?
Answer: 5.7 ± 0.6 nM

Question: And the cell cycle arrest [6]?
Answer: cell cycle arrest at the G2/M transition
